Measured values from patent US9290777B2, “Putative cytokinin receptor and methods for use thereof” (NATIONAL UNIVERSITY OF SINGAPORE, priority 2007, dated 2016).

Tested on: ARR6
Assay: qRT-PCR of cytokinin responsive gene after BA pulse, fold change vs untreated wild type
Type: cell-based, Arabidopsis thaliana
Protocol: For quantitative real-time PCR (qRT-PCR) analysis of cytokinin-inducible gene expression, seeds were germinated on MS medium with 3% (w/v) sucrose and grown for 6 days. Cytokinin treatment was carried out by incubating seedlings in the same MS+sucrose liquid medium (no agar) supplemented with 0, 0.01, 0.1, 1 or 5 μM [solubilized in 0.1% dimethylsulfoxide (DMSO) and diluted with the MS medium] for 5 min, 15 min, 30 min or 1 h. The control seedlings were incubated with DMSO (0.1%, the concentration used to dissolve cytokinins for the treatment) for the corresponding durations and used for expression analysis. Before RNA preparation, WT, OE and AS seedlings were pooled and stored in RNAlater solution (Qiagen, Valencia, Calif.). Total RNA was extracted using the Rneasy Plant Mini Kit (Qiagen). SYBRgreen RT-PCR reagents (Applied Biosystems) were used to synthesize double-stranded cDNA. The number of transcripts present in biological replicates each of WT, OE and AS seedlings, with or without BA and DMSO, was determined from three independent replicates. Fold induction of the transcripts was calculated according to the manufacturer's instructions (ABI Prism 7700 Sequence Detection System, User Bulletin #2).

With `c1ccc(CNc2ncnc3nc[nH]c23)cc1` [benzyladenine] the ARR6 fold change (BA 0.01 μM, 5 min, AS1, ↑ up) was 4.12↑, the ARR6 fold change (BA 0.01 μM, 5 min, AS8, ↑ up) was 7.1↑ and the ARR6 fold change (BA 0.01 μM, 5 min, AS21, ↑ up) was 9.2↑. The ARR6 fold change (BA 0.01 μM, 5 min, OE1, ↓ down) was 5.51↓, the ARR6 fold change (BA 0.01 μM, 5 min, OE12, ↓ down) was 6.87↓ and the ARR6 fold change (BA 0.01 μM, 5 min, OE18, ↓ down) was 8.56↓. The ARR6 fold change (BA 0.01 μM, 5 min, Wild type, ↑ up) was 4.13↑, the ARR6 fold change (BA 0.01 μM, 15 min, AS1, ↑ up) was 4.57↑ and the ARR6 fold change (BA 0.01 μM, 15 min, AS8, ↑ up) was 7.41↑. For the same molecule, the ARR6 fold change (BA 0.01 μM, 15 min, AS21, ↑ up) was 9.58↑, the ARR6 fold change (BA 0.01 μM, 15 min, OE1, ↓ down) was 5.33↓ and the ARR6 fold change (BA 0.01 μM, 15 min, OE12, ↓ down) was 6.56↓. For the same molecule, the ARR6 fold change (BA 0.01 μM, 15 min, OE18, ↓ down) was 8.32↓, the ARR6 fold change (BA 0.01 μM, 15 min, Wild type, ↑ up) was 4.67↑ and the ARR6 fold change (BA 0.01 μM, 30 min, AS1, ↑ up) was 5.98↑. The ARR6 fold change (BA 0.01 μM, 30 min, AS8, ↑ up) was 7.86↑, the ARR6 fold change (BA 0.01 μM, 30 min, AS21, ↑ up) was 9.79↑ and the ARR6 fold change (BA 0.01 μM, 30 min, OE1, ↓ down) was 5.11↓. The ARR6 fold change (BA 0.01 μM, 30 min, OE12, ↓ down) was 6.13↓, the ARR6 fold change (BA 0.01 μM, 30 min, OE18, ↓ down) was 8.13↓ and the ARR6 fold change (BA 0.01 μM, 30 min, Wild type, ↑ up) was 4.98↑. For the same molecule, the ARR6 fold change (BA 0.01 μM, 1 h, AS1, ↑ up) was 6.2↑, the ARR6 fold change (BA 0.01 μM, 1 h, AS8, ↑ up) was 7.98↑ and the ARR6 fold change (BA 0.01 μM, 1 h, AS21, ↑ up) was 10.15↑. The ARR6 fold change (BA 0.01 μM, 1 h, OE1, ↓ down) was 4.91↓, the ARR6 fold change (BA 0.01 μM, 1 h, OE12, ↓ down) was 5.06↓ and the ARR6 fold change (BA 0.01 μM, 1 h, OE18, ↓ down) was 7.98↓. The ARR6 fold change (BA 0.01 μM, 1 h, Wild type, ↑ up) was 5.15↑, the ARR6 fold change (BA 0.1 μM, 5 min, AS1, ↑ up) was 6.14↑ and the ARR6 fold change (BA 0.1 μM, 5 min, AS8, ↑ up) was 8.12↑. For the same molecule, the ARR6 fold change (BA 0.1 μM, 5 min, AS21, ↑ up) was 10.31↑, the ARR6 fold change (BA 0.1 μM, 5 min, OE1, ↓ down) was 5.1↓ and the ARR6 fold change (BA 0.1 μM, 5 min, OE12, ↓ down) was 5.91↓. The ARR6 fold change (BA 0.1 μM, 5 min, OE18, ↓ down) was 7.89↓, the ARR6 fold change (BA 0.1 μM, 5 min, Wild type, ↑ up) was 5.36↑ and the ARR6 fold change (BA 0.1 μM, 15 min, AS1, ↑ up) was 6.39↑. For the same molecule, the ARR6 fold change (BA 0.1 μM, 15 min, AS8, ↑ up) was 8.32↑, the ARR6 fold change (BA 0.1 μM, 15 min, AS21, ↑ up) was 10.46↑ and the ARR6 fold change (BA 0.1 μM, 15 min, OE1, ↓ down) was 5.04↓. The ARR6 fold change (BA 0.1 μM, 15 min, OE12, ↓ down) was 5.71↓, the ARR6 fold change (BA 0.1 μM, 15 min, OE18, ↓ down) was 5.72↓ and the ARR6 fold change (BA 0.1 μM, 15 min, Wild type, ↑ up) was 5.58↑. The ARR6 fold change (BA 0.1 μM, 30 min, AS1, ↑ up) was 6.69↑, the ARR6 fold change (BA 0.1 μM, 30 min, AS8, ↑ up) was 8.57↑ and the ARR6 fold change (BA 0.1 μM, 30 min, AS21, ↑ up) was 10.68↑. The ARR6 fold change (BA 0.1 μM, 30 min, OE1, ↓ down) was 4.9↓, the ARR6 fold change (BA 0.1 μM, 30 min, OE12, ↓ down) was 5.59↓ and the ARR6 fold change (BA 0.1 μM, 30 min, OE18, ↓ down) was 5.36↓. The ARR6 fold change (BA 0.1 μM, 30 min, Wild type, ↑ up) was 5.89↑, the ARR6 fold change (BA 0.1 μM, 1 h, AS1, ↑ up) was 6.98↑ and the ARR6 fold change (BA 0.1 μM, 1 h, AS8, ↑ up) was 8.99↑. For the same molecule, the ARR6 fold change (BA 0.1 μM, 1 h, AS21, ↑ up) was 10.97↑, the ARR6 fold change (BA 0.1 μM, 1 h, OE1, ↓ down) was 4.67↓ and the ARR6 fold change (BA 0.1 μM, 1 h, OE12, ↓ down) was 4.61↓. The ARR6 fold change (BA 0.1 μM, 1 h, OE18, ↓ down) was 5.01↓, the ARR6 fold change (BA 0.1 μM, 1 h, Wild type, ↑ up) was 5.99↑ and the ARR6 fold change (BA 1.0 μM, 5 min, AS1, ↑ up) was 7.43↑. For the same molecule, the ARR6 fold change (BA 1.0 μM, 5 min, AS8, ↑ up) was 9.01↑, the ARR6 fold change (BA 1.0 μM, 5 min, AS21, ↑ up) was 10.99↑ and the ARR6 fold change (BA 1.0 μM, 5 min, OE1, ↓ down) was 4.96↓. For the same molecule, the ARR6 fold change (BA 1.0 μM, 5 min, OE12, ↓ down) was 5.19↓, the ARR6 fold change (BA 1.0 μM, 5 min, OE18, ↓ down) was 4.36↓ and the ARR6 fold change (BA 1.0 μM, 5 min, Wild type, ↑ up) was 6.1↑. The ARR6 fold change (BA 1.0 μM, 15 min, AS1, ↑ up) was 7.68↑, the ARR6 fold change (BA 1.0 μM, 15 min, AS8, ↑ up) was 9.43↑ and the ARR6 fold change (BA 1.0 μM, 15 min, AS21, ↑ up) was 11.12↑. For the same molecule, the ARR6 fold change (BA 1.0 μM, 15 min, OE1, ↓ down) was 4.71↓, the ARR6 fold change (BA 1.0 μM, 15 min, OE12, ↓ down) was 5.01↓ and the ARR6 fold change (BA 1.0 μM, 15 min, OE18, ↓ down) was 4.21↓. For the same molecule, the ARR6 fold change (BA 1.0 μM, 15 min, Wild type, ↑ up) was 6.31↑, the ARR6 fold change (BA 1.0 μM, 30 min, AS1, ↑ up) was 7.73↑ and the ARR6 fold change (BA 1.0 μM, 30 min, AS8, ↑ up) was 9.69↑. For the same molecule, the ARR6 fold change (BA 1.0 μM, 30 min, AS21, ↑ up) was 11.35↑, the ARR6 fold change (BA 1.0 μM, 30 min, OE1, ↓ down) was 4.49↓ and the ARR6 fold change (BA 1.0 μM, 30 min, OE12, ↓ down) was 4.89↓. For the same molecule, the ARR6 fold change (BA 1.0 μM, 30 min, OE18, ↓ down) was 4.01↓, the ARR6 fold change (BA 1.0 μM, 30 min, Wild type, ↑ up) was 6.59↑ and the ARR6 fold change (BA 1.0 μM, 1 h, AS1, ↑ up) was 8.01↑. The ARR6 fold change (BA 1.0 μM, 1 h, AS8, ↑ up) was 9.93↑, the ARR6 fold change (BA 1.0 μM, 1 h, AS21, ↑ up) was 11.76↑ and the ARR6 fold change (BA 1.0 μM, 1 h, OE1, ↓ down) was 3.21↓. For the same molecule, the ARR6 fold change (BA 1.0 μM, 1 h, OE12, ↓ down) was 3.56↓, the ARR6 fold change (BA 1.0 μM, 1 h, OE18, ↓ down) was 3.01↓ and the ARR6 fold change (BA 1.0 μM, 1 h, Wild type, ↑ up) was 6.87↑. For the same molecule, the ARR6 fold change (BA 5.0 μM, 5 min, AS1, ↑ up) was 7.98↑, the ARR6 fold change (BA 5.0 μM, 5 min, AS8, ↑ up) was 9.98↑ and the ARR6 fold change (BA 5.0 μM, 5 min, AS21, ↑ up) was 11.43↑. The ARR6 fold change (BA 5.0 μM, 5 min, OE1, ↓ down) was 4.19↓, the ARR6 fold change (BA 5.0 μM, 5 min, OE12, ↓ down) was 4.67↓ and the ARR6 fold change (BA 5.0 μM, 5 min, OE18, ↓ down) was 3.45↓. For the same molecule, the ARR6 fold change (BA 5.0 μM, 5 min, Wild type, ↑ up) was 7.52↑, the ARR6 fold change (BA 5.0 μM, 15 min, AS1, ↑ up) was 8.01↑ and the ARR6 fold change (BA 5.0 μM, 15 min, AS8, ↑ up) was 10.07↑. The ARR6 fold change (BA 5.0 μM, 15 min, AS21, ↑ up) was 11.56↑, the ARR6 fold change (BA 5.0 μM, 15 min, OE1, ↓ down) was 4.01↓ and the ARR6 fold change (BA 5.0 μM, 15 min, OE12, ↓ down) was 4.62↓. For the same molecule, the ARR6 fold change (BA 5.0 μM, 15 min, OE18, ↓ down) was 3.18↓, the ARR6 fold change (BA 5.0 μM, 15 min, Wild type, ↑ up) was 7.69↑ and the ARR6 fold change (BA 5.0 μM, 30 min, AS1, ↑ up) was 8.23↑. The ARR6 fold change (BA 5.0 μM, 30 min, Wild type, ↑ up) was 7.89↑.
